The values that follow come from BindingDB's records for doi:10.1016/S0960-894X(97)10088-9 (1997).

A short description of this experiment: Compound was evaluated for inhibitory activity against Isoleucyl-tRNA synthetase.
On to `COC(=O)CCCCCCCCOC(=O)/C=C/C[C@@H]1OC[C@H](NS(=O)(=O)c2cccc(Cl)c2)[C@@H](O)[C@H]1O` [9-{(E)-4-[(2S,3R,4R,5S)-5-(3-Chloro-benzenesulfonylamino)-3,4-dihydroxy-tetrahydro-pyran-2-yl]-but-2-enoyloxy}-nonanoic acid methyl ester], for which the IC50 (commonly the concentration needed to halve the response being measured) worked out at 300 nM. In other words, the sub-micromolar range. `COC(=O)CCCCCCCCOC(=O)/C=C/C[C@@H]1OC[C@H](NS(=O)(=O)CCCCl)[C@@H](O)[C@H]1O` [9-{(E)-4-[(2S,3R,4R,5S)-5-(3-Chloro-propane-1-sulfonylamino)-3,4-dihydroxy-tetrahydro-pyran-2-yl]-but-2-enoyloxy}-nonanoic acid methyl ester] yielded an IC50 of 100 nM. Then `CCCCS(=O)(=O)N[C@H]1CO[C@@H](C/C=C/C(=O)OCCCCCCCCC(=O)OC)[C@H](O)[C@@H]1O` [9-{(E)-4-[(2S,3R,4R,5S)-5-(Butane-1-sulfonylamino)-3,4-dihydroxy-tetrahydro-pyran-2-yl]-but-2-enoyloxy}-nonanoic acid methyl ester], with 300 nM.
